The test has as its target T1, human PAR4 (Homo sapiens, UniProt Q96RI0).
T1 construct: expressed in transfected cells; host or cells: HEK293 PAR4 Clone 1.2A (BMS Arctic ID 383940)
T1 sequence (Q96RI0 18-385): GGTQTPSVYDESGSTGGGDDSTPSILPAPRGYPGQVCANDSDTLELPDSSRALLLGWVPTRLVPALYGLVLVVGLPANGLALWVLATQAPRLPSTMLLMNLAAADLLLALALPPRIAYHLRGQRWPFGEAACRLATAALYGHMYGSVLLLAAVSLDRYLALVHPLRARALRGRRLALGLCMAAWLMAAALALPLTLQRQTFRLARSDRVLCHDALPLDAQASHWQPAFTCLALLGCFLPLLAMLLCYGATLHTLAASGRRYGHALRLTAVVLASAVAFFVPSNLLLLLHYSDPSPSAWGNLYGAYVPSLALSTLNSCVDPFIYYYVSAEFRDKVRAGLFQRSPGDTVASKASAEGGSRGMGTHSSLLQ
Description: PAR4 FLIPR assay: antagonism of agonist-peptide-induced calcium mobilization in PAR4-expressing HEK293 cells. Type of test: cell-based. The note with it: H-Ala-Phe(4-F)-[…]NH2-induced intracellular calcium mobilization, 11-point curves. (Calcium flux is commonly read through the fluorescence of an indicator in the cells.)

For `COc1cnc2c(-c3nc4cc(F)c(O[C@H](C)COC(=O)Nc5cccnc5)cc4s3)cc(C)cc2n1` [Example 344, (R)-2-((5-fluoro-2-(2-methoxy-7-methylquinoxalin-5-yl)benzo[d]thiazol-6-yl)oxy)propyl pyridin-3-ylcarbamate], the 50% inhibitory concentration (IC50) stood at 11 nM.
Turning to `COc1cnc2c(-c3nc4cc(F)c(O[C@@H](C)COC(=O)Nc5cccnc5)cc4s3)cc(C)cc2n1` [Example 345, (S)-2-((5-fluoro-2-(2-methoxy-7-methylquinoxalin-5-yl)benzo[d]thiazol-6-yl)oxy)propyl pyridin-3-ylcarbamate], the IC50 was 0.6 nM.
Next, `COc1cnc2c(-c3nc4cc(F)c(OC[C@H](C)OC(=O)Nc5cccnc5)cc4s3)cc(C)cc2n1` [Example 346, (S)-1-((5-fluoro-2-(2-methoxy-7-methylquinoxalin-5-yl)benzo[d]thiazol-6-yl)oxy)propan-2-ylpyridin-3-ylcarbamate]: 3.7 nM; `COc1cnc2c(-c3nc4cc(F)c(OC[C@@H](C)OC(=O)Nc5cccnc5)cc4s3)cc(C)cc2n1` [Example 347, (R)-1-((5-fluoro-2-(2-methoxy-7-methylquinoxalin-5-yl)benzo[d]thiazol-6-yl)oxy)propan-2-yl pyridin-3-ylcarbamate]: 0.8 nM.
Then `COc1cnc2c(-c3nc4cc(F)c(OC[C@@H](C)OC(=O)Nc5ccc(F)nc5)cc4s3)cc(C)cc2n1` [Example 348, (R)-1-((5-fluoro-2-(2-methoxy-7-methylquinoxalin-5-yl)benzo[d]thiazol-6-yl)oxy)propan-2-yl (6-fluoropyridin-3-yl)carbamate], with 4.4 nM; and `COc1cnc2c(-c3nc4cc(F)c(OC[C@@H](C)OC(=O)Nc5ccncc5)cc4s3)cc(C)cc2n1` [Example 349, (R)-1-((5-fluoro-2-(2-methoxy-7-methylquinoxalin-5-yl)benzo[d]thiazol-6-yl)oxy)propan-2-yl pyridin-4-ylcarbamate], with 2.7 nM; and `COc1cnc2c(-c3nc4cc(F)c(OC[C@@H](C)OC(=O)Nc5ccc6[nH]c(=O)oc6c5)cc4s3)cc(C)cc2n1` [Example 350, (R)-1-((5-fluoro-2-(2-methoxy-7-methylquinoxalin-5-yl)benzo[d]thiazol-6-yl)oxy)propan-2-yl (2-oxo-2,3-dihydrobenzo[d]oxazol-6-yl)carbamate], with 2.8 nM.
Then `COc1cnc2c(-c3nc4cc(F)c(OC[C@@H](C)OC(=O)Nc5ccc(C#N)nc5)cc4s3)cc(C)cc2n1` [Example 351, (R)-1-((5-fluoro-2-(2-methoxy-7-methylquinoxalin-5-yl)benzo[d]thiazol-6-yl)oxy) propan-2-yl (6-cyanopyridin-3-yl)carbamate], with 2.7 nM.
As for `COc1cnc2c(-c3nc4cc(F)c(OC[C@@H](C)OC(=O)NCCC(N)=O)cc4s3)cc(C)cc2n1` [Example 352, (R)-1-((5-fluoro-2-(2-methoxy-7-methylquinoxalin-5-yl)benzo[d]thiazol-6-yl)oxy)propan-2-yl (3-amino-3-oxopropyl) carbamate], the 50% inhibitory concentration (IC50) was determined as 390 nM.
Next, `COc1cnc2c(-c3nc4cc(F)c(OC[C@@H](C)OC(=O)Nc5ccnnc5)cc4s3)cc(C)cc2n1` [Example 353, (R)-1-((5-fluoro-2-(2-methoxy-7-methylquinoxalin-5-yl)benzo[d]thiazol-6-yl)oxy)propan-2-yl pyridazin-4-ylcarbamate]: 22 nM.
With `COc1cnc2c(-c3nc4cc(F)c(OC[C@@H](C)OC(=O)Nc5cnc6[nH]ccc6c5)cc4s3)cc(C)cc2n1` [Example 354, (R)-1-((5-fluoro-2-(2-methoxy-7-methylquinoxalin-5-yl)benzo[d]thiazol-6-yl)oxy)propan-2-yl 1H-pyrrolo[2,3-b]pyridin-5-ylcarbamate], the 50% inhibitory concentration (IC50) was determined as 1.2 nM.
Regarding `COc1cnc2c(-c3nc4cc(F)c(OC[C@@H](C)OC(=O)Nc5ccc6[nH]ccc6c5)cc4s3)cc(C)cc2n1` [Example 355, (R)-1-((5-fluoro-2-(2-methoxy-7-methylquinoxalin-5-yl)benzo[d]thiazol-6-yl)oxy)propan-2-yl 1H-indol-5-ylcarbamate], the concentration for half-maximal inhibition (IC50) was 17 nM.
Then `COc1cnc2c(-c3nc4cc(F)c(OC[C@@H](C)OC(=O)Nc5ccc6c(ccn6C)c5)cc4s3)cc(C)cc2n1` [Example 356, (R)-1-((5-fluoro-2-(2-methoxy-7-methylquinoxalin-5-yl)benzo[d]thiazol-6-yl)oxy)propan-2-yl (1-methyl-1H-indol-5-yl)carbamate], with 2.1 nM; and `COc1cnc2c(-c3nc4cc(F)c(OC[C@@H](C)OC(=O)Nc5cnc(C)nc5)cc4s3)cc(C)cc2n1` [Example 357, (R)-1-((5-fluoro-2-(2-methoxy-7-methylquinoxalin-5-yl)benzo[d]thiazol-6-yl)oxy)propan-2-yl (2-methylpyrimidin-5-yl)carbamate], with 6.7 nM.
Regarding `COc1cnc2c(-c3nc4c(Cl)c(F)c(OCCOC(N)=O)cc4s3)cc(C)cc2n1` [Example 358, 2-((4-chloro-5-fluoro-2-(2-methoxy-7-methylquinoxalin-5-yl)benzo[d]thiazol-6-yl)oxy) ethyl carbamate], the IC50 is 270 nM.
As for `COc1cnc2c(-c3nc4c(Cl)c(F)c(OCCOC(=O)Nc5cnc6[nH]ccc6c5)cc4s3)cc(C)cc2n1` [Example 359, 2-((4-chloro-5-fluoro-2-(2-methoxy-7-methylquinoxalin-5-yl)benzo[d]thiazol-6-yl)oxy)ethyl 1H-pyrrolo[2,3-b]pyridin-5-ylcarbamate], the 50% inhibitory concentration (IC50) is 170 nM.
Then `COc1cnc2c(-c3nc4c(Cl)c(F)c(OCCOC(=O)Nc5ccc6[nH]ccc6c5)cc4s3)cc(C)cc2n1` [Example 360, 2-((4-chloro-5-fluoro-2-(2-methoxy-7-methylquinoxalin-5-yl)benzo[d]thiazol-6-yl)oxy)ethyl 1H-indol-5-ylcarbamate], with 160 nM; and `COC(=O)c1ccc(NC(=O)OCCOc2cc3sc(-c4cc(C)cc5nc(OC)cnc45)nc3c(Cl)c2F)cn1` [Example 361, methyl 5-(((2-((4-chloro-5-fluoro-2-(2-methoxy-7-methylquinoxalin-5-yl)benzo[d]thiazol-6-yl)oxy)ethoxy)carbonyl)amino)picolinate], with 5.5 nM; and `COc1cnc2c(-c3nc4c(Cl)c(F)c(OCCOC(=O)Nc5cnc(C)nc5)cc4s3)cc(C)cc2n1` [Example 362, 2-((4-chloro-5-fluoro-2-(2-methoxy-7-methylquinoxalin-5-yl)benzo[d]thiazol-6-yl)oxy)ethyl (2-methylpyrimidin-5-yl)carbamate], with 4.1 nM.
For `COc1cnc2c(-c3nc4c(Cl)c(F)c(OCCOC(=O)Nc5nsc(OC)n5)cc4s3)cc(C)cc2n1` [Example 363, 2-((4-chloro-5-fluoro-2-(2-methoxy-7-methylquinoxalin-5-yl)benzo[d]thiazol-6-yl)oxy)ethyl (5-methoxy-1,2,4-thiadiazol-3-yl)carbamate], the half-inhibitory concentration (IC50) worked out at 1700 nM.
For the compound `COc1cnc2c(-c3nc4c(Cl)c(F)c(OCCOC(=O)Nc5cn[nH]c5)cc4s3)cc(C)cc2n1` [Example 364, 2-((4-chloro-5-fluoro-2-(2-methoxy-7-methylquinoxalin-5-yl)benzo[d]thiazol-6-yl)oxy)ethyl 1H-pyrazol-4-ylcarbamate], the IC50 was 19 nM.
`COc1cnc2c(-c3nc4c(Cl)c(F)c(OCCOC(=O)Nc5cnn(C)c5)cc4s3)cc(C)cc2n1` [Example 365, 2-((4-chloro-5-fluoro-2-(2-methoxy-7-methylquinoxalin-5-yl)benzo[d]thiazol-6-yl)oxy) ethyl (1-methyl-1H-pyrazol-4-yl)carbamate]: the concentration for half-maximal inhibition (IC50) came to 2.5 nM.
Take `COc1cnc2c(-c3nc4c(Cl)c(F)c(OCCOC(=O)Nc5nnc(C)o5)cc4s3)cc(C)cc2n1` [Example 366, 2-((4-chloro-5-fluoro-2-(2-methoxy-7-methylquinoxalin-5-yl)benzo[d]thiazol-6-yl)oxy)ethyl (5-methyl-1,3,4-oxadiazol-2-yl) carbamate]: the IC50 turned out to be 550 nM.
Next, `COc1cnc2c(-c3nc4c(Cl)c(F)c(OCCOC(=O)Nc5cnc6c(c5)cc(C)n6C)cc4s3)cc(C)cc2n1` [Example 367, 2-((4-chloro-5-fluoro-2-(2-methoxy-7-methylquinoxalin-5-yl)benzo[d]thiazol-6-yl)oxy)ethyl (1,2-dimethyl-1H-pyrrolo[2,3-b]pyridin-5-yl)carbamate]: 12 nM; `COc1cnc2c(-c3nc4c(Cl)c(F)c(OCCOC(=O)NCc5ccncc5)cc4s3)cc(C)cc2n1` [Example 369, 2-((4-chloro-5-fluoro-2-(2-methoxy-7-methylquinoxalin-5-yl)benzo[d]thiazol-6-yl)oxy)ethyl (pyridin-4-ylmethyl)carbamate]: 13 nM; `COc1cnc2c(-c3nc4c(Cl)c(F)c(OC[C@@H](C)OC(=O)Nc5nnc(C)s5)cc4s3)cc(C)cc2n1` [Example 370, (R)-1-((4-chloro-5-fluoro-2-(2-methoxy-7-methylquinoxalin-5-yl)benzo[d]thiazol-6-yl)oxy)propan-2-yl (5-methyl-1,3,4-thiadiazol-2-yl)carbamate]: 5.8 nM.
Take `COc1cnc2c(-c3nc4c(Cl)c(F)c(OC[C@@H](C)OC(=O)Nc5ccc(C#N)nc5)cc4s3)cc(C)cc2n1` [Example 371, (R)-1-((4-chloro-5-fluoro-2-(2-methoxy-7-methylquinoxalin-5-yl)benzo[d]thiazol-6-yl)oxy)propan-2-yl (6-cyanopyridin-3-yl)carbamate]: the IC50 turned out to be 1.8 nM.

What is called IC50 is the concentration that inhibits the measured activity by half.

The values above are taken from patent US12060347B2 (BRISTOL-MYERS SQUIBB COMPANY, priority 2016, dated 2024).
